EP0120270A2, “Furyloxazolylacetic acid derivative, processes for preparing same and pharmaceutical composition” (Tanabe Seiyaku Co., Ltd., priority 1983, dated 1984)

How the values were obtained:
[1] = test system: male SD rats; assay: Hypolipidemic activity (serum cholesterol and serum triglyceride in rats fed diet containing test compound); assay type: in vivo; conditions: test compound 50 mg % in diet, ad libitum for one week, group of 5
Procedure: A test compound (50 mg %) was added to a commercial diet, and male SD rats (body weight: 120 - 140 g, a group of 5 rats) were fed with the diet ad libitum for one week. After the experimental period, blood was collected from the tail vein of the rats under ether anesthesia. Then, serum cholesterol and serum triglyceride were measured according to the methods of Zak (Amr. J. Clin, Pathol., Vol. 24, page 1307 (1954)) and Van Handel-Silversmit (J. Lab. & Clin. Med., Vol. 50, page 152 (1957)), respectively. Based on the results obtained above, the decrease (%) in serum cholesterol or triglyceride were calculated by the following formula: [formula]

[2] = test system: platelet aggregation; assay: Platelet aggregation-inhibiting activity (collagen-induced aggregation in platelet-rich plasma); assay type: cell-based, rats; conditions: final concentration: 100 µg/ml, rat PRP, 37°C
Procedure: Blood was collected from the abdominal aorta of male SD rats (body weight: 250 - 300 g) which were anesthetized with ether. Nine volumes of said blood were mixed with one volume of an aqueous 3.8 % (w/v) trisodium citrate solution, and the mixture was centrifuged at 500 x g for 5 minutes to give platelet-rich plasma (hereinafter referred to as "PRP") as the supernatant solution. The bottom layer was further centrifuged at 1000 x g for 10 minutes to give platelet-poor plasma (hereinafter referred to as "PPP") as the supernatant solution. PRP was diluted with PPP so that the blood platelet count was 8 - 10 x 10 /mm . Then, a mixture of 200 µl of said diluted PRP and 25 µl of a test compound solution (final concentration: 100 µg/ml) was introduced into a glass cell of SIENCO aggregometer (Sienco Inc., Morrison, Colo. Model DP-247-D). After the mixture was stirred at 1100 rpm at 37°C for 2 minutes, 25 µl of a collagen solution (prepared by Holmsen's method described in Biochim. Biophys. Acta, Vol. 186, page 254(1969)) was added thereto, and the percentage inhibition of platelet aggregation was calculated in accordance with the following formula from the degree of the platelet aggregation which was estimated by Born's method (Nature, 194, page 927[…]). [formula]

SMILES | Decrease (%) in serum choles-terol [1] | Decrease (%) in serum trigly-ceride [1] | inhibition at 100 µg/mL [2]
CC(C)(C(=O)O)c1nc(-c2ccc(Cl)cc2)oc1-c1ccco1 [2-[2-(4-chlorophenyl)-5-(2-furyl)-4-oxazolyl]-2-methylpropionic acid] | 16% | 54% | 
CC(C(=O)O)c1nc(-c2ccc(Cl)cc2)oc1-c1ccco1 (stereo not shown) [2-[2-(4-chlorophenyl)-5-(2-furyl)-4-oxazolyl]-propionic acid] | 14% | 34% | 
CCOC(=O)C(C)(C)Oc1ccc(Cl)cc1 [Clofibrate, 2-(4-chlorophenoxy)-2-methylpropanoic acid ethyl ester, reference compound] | 15% | 16% | < 10%
CCOC(=O)C(C)c1nc(-c2ccc(Cl)cc2)oc1-c1ccco1 (stereo not shown) [Ethyl 2-[2-(4-chlorophenyl)-5-(2-furyl)-4-oxazolyl]-propionate] | 15% | 22% | ≥ 10%
CCOC(=O)C(C)c1nc(-c2ccc(Cl)cc2)oc1-c1ccoc1 (stereo not shown) [Ethyl 2-[2-(4-chlorophenyl)-5-(3-furyl)-4-oxazolyl]-propionate] | 22% | 45% | ≥ 10%
